Consider two compounds from patent US20090247520A1, “INHIBITORS OF ANTIGEN RECEPTOR-INDUCED NF-kappa B ACTIVATION” (The Burnham Institute for Medical Research, priority 2008, published 2009).

Assay [1] concerns PMA/Ionomycin-stimulated IL-8 production. The assay is described as follows: PMA/Ionomycin-stimulated IL-8 production by HEK293 reporter cells (ELISA). The assay is classed as cell-based, human. On the procedure: (§1) (A) Structures of two hit compounds, CID-2858522 (left) and CID-2998237 (right) are shown; (B, C) 293-NF-κB-luc cells were pretreated for 2 hrs with various concentration of either CID-2858522 (B) or CID-29982387 (C) and then stimulated with TNF (10 ng/mL) or PMA/lonomycin (10 ng/mL; 5 ng/mL) for 16 h. Luciferase activity was measured and data were expressed as a percentage relative to control treatment with DMSO only (mean±SD; n=3). (D) 293-NF-κB-luc cells were pretreated for 2 h with various concentrations of CID-2858522 or CID-2998237, then stimulated with PMA/lonomycin for 16 h. IL-8 release into the medium was measured, expressing data as a percentage relative to control cultures treated with DMSO (mean±SD; n=3). (E) 293-NF-κB-luc cells were pretreated with CID-2858522 and then stimulated with PDBu for 16 h, IL-8 production and NF-κB luciferase activity were measured as above. (F) 293-NF-κB-luc cells were pretreated for 2 h with various concentrations of CID-2858522 or a PKC inhibitor (Bisindolylmaleimide I) at 1 μM followed by PMA/Ionomycin (10 ng/mL) stimulation for 2 h, then p65-DNA-binding activity was measured in nuclear extracts (10 μg protein), expressing data as fold-increase relative to unstimulated cells (mean±SD; n=3).
Lymphokine measurements. Human IL-2 or IL-8 levels in culture medium were measured by Enzyme-Linked Immunosorbent Assays (ELISAs), using BD OptEIA ELISAs (BD Biosciences, San Diego, Calif.), according to the manufacturer's protocol, using 96-well ELISA plates (BD Biosciences) and measuring absorbance within 30 minutes of initiating reactions using a SpectraMax 190 spectrophotometer (Molecular Devices).

Assay [2] has as its system PDB-induced IL-8 production. The assay is described as follows: PDBu-induced IL-8 production by HEK293 cells. The assay is classed as cell-based. The conditions noted are these: Homo sapiens. On the procedure:
as §1
Lymphokine measurements. […]

Assay [3] concerns PMA/Ionomycin-induced p65-RelA DNA-binding activity. The assay is described as follows: NF-κB p65 DNA-binding activity, PMA/Ionomycin-stimulated HEK293 cells. It is filed as cell-based. On the procedure:
as §1
NF-κB DNA-binding activity assays. Nuclear extracts were prepared from 10 cm^2 plates of confluent cells using a kit (Active Motif, Carsbad, Calif.). The total protein content of nuclear fractions was quantified by the Bradford method, followed by storage at −80° C. NF-κB DNA-binding activity was measured in nuclear extracts (10 μg protein) using an immunoassay method (TransAM Kit [Active Motif]) employing 96 well plates coated with double-strand oligodeoxynucleotides containing NF-κB consensus binding site (5′-[…]-3′) and anti-p65 antibody, which was detected by secondary horseradish peroxidase (HRP)-conjugated antibody, using a calorimetric substrate with absorbance read at 450 nm within 5 minutes using a spectrophotometer, SpectraMax M5 (Molecular Devices, Sunnyvale, Calif.).

Assay [4] deals with cIAP2/MALT oncoprotein induced NF-κB activation. The assay is described as follows: NF-κB reporter in 293-NF-κB-luciferase cells transfected with cIAP2/MALT. The assay is classed as cell-based. As to conditions: CID-2858522 4 μM, IKK inhibitor 10 μM. The method, then: FIGS. 3 (A-F) HEK293-NF-κB-luc cells were pretreated with CID-2858522 (4 μM), IKK inhibitor, BMS-335541 (10 μM), or PKC inhibitor, Bisindolylmaleimide I (1 μM) for 2 hrs and then transfected with plasmids encoding CD4/TLR4 (A), CD40 (B), NOD1 (C), NOD2 (D), cIAP2-MALT1 (E), or XIAP and TAB (F), or pcDNA as control (compounds were not removed). After 48 hrs, luciferase activity was measured expressing data as fold increase relative to unstimulated cells (mean±SD; n=3). (G-H) HEK293-NF-κB-luc cells were pretreated with CID-2858522 (4 μM), or IKK inhibitor, BMS-335541 (10 μM) for 2 hrs and then cultured with 2 μM doxorubicin (G) or 16 μM retinoic acid (H). After 48 hrs, luciferase activity was measured as above.
Counter Screening and Secondary Assays. To counter-screen for inhibitors of the TNF pathway, HEK293-NFκB-Luc cells were seeded at 10^5 cells per well in 90 μL medium in white 96-well plates (Greiner Bio-One) and cultured overnight, before adding compounds (5 μL in medium) to cells. After 2 h incubation, 5 μL TNF (200 ng/mL) (R&D Systems) was added (final concentration 10 ng/mL) and cells were incubated for 16 h. Luciferase activity was measured using Britelite kit (Perkin Elmer). To counter-screen for inhibitors of NF-κB induced by TLR4, CD40, NOD1, NOD2, cIAP2/MALT, or XIAP/TAB, the 293-NF-κB-luc cells cultured in 96 well plates as above were pretreated with compounds for 2 h and then transfected using Lipofectamine 2000 with various plasmids including pcDNA3 (“empty vector” control) or plasmids encoding CD4-TLR4, CD40, NOD1, NOD2, cIAP2/MALT, XIAP/TAB, using 0.2 μL of transfection reagent containing 100 ng DNA per well. Cells were cultured in medium containing CID-2858522 or other compounds and luciferase activity was measured 48 h later. […] Reactions were then initiated by addition of 50 μL 160 nM ATP (Sigma) in PBS and luciferase activity was measured 2 h later using a luminometer (LJL Biosystems, Sunnyvale, Calif.).

Read-outs that look alike come from different tables or passages of the source.

`Cc1cc2nc(NCCCO)n(CC(=O)c3cc(C(C)(C)C)c(O)c(C(C)(C)C)c3)c2cc1C` [Compound 1, 2-(2-(3-Hydroxypropylamino)-5,6-dimethyl-1H-benzo[d]imidazol-1-yl)-1-(3,5-di-tert-butyl-4-hydroxyphenyl)ethanone]: the half-inhibitory concentration (IC50) (in general, the point on the concentration scale where inhibition reaches its midpoint) in assay [1] (Homo sapiens) was less than 0.1 µM; in assay [2] (read-out: IC50, PDB-induced IL-8 production), 0.1 µM; in assay [2] (read-out: IC50, PDBu-induced IL-8 secretion (cellular potency)), less than 0.1 µM. Also, in assay [1] (PMA/Ionomycin), the “concentration at which maximum suppression of IL-8 production is achieved” value came to 1 µM. In assay [3] (HEK293), the “concentration of maximal suppression of NF-κB DNA-binding activity” value was roughly 1 µM. The “lowest concentration with evident suppression of NF-κB DNA-binding activity” value in assay [3] (HEK293) was 0.1 µM. Besides, the “inhibition of p65-RelA DNA-binding activity” value in assay [3] (compared to PKC inhibitor) is “only partially inhibited”. The entries for the “suppression of cIAP2/MALT-driven NF-κB activation” value in assay [4] and in assay [4] (listed as CID-288522) were “did not inhibit” and “did not”, respectively.

Turning to `Cc1ccc2nc(NCCN)c3ncc(C)n3c2c1` [BMS-345541, reference compound], in assay [4], the “suppression of cIAP2/MALT-driven NF-κB activation” value is on record as “effectively suppressed”.
